Source: US10703748B2, “Diazanaphthalen-3-yl carboxamides and preparation and use thereof” (Samumed, LLC, priority 2017, dated 2020)

Assays:
[1] = system: secreted cytokines TNFα, IL-6 and KC-GRO; test: Secreted cytokines in Lipopolysaccharide-stimulated BV-2 cells (Table 9 does not say which cytokine); assay type: cell-based, mouse; conditions: Mus musculus, BV-2, 5 h; read-out: EC50
Protocol: BV-2 cells (mouse microglial cells) were cultured in 1:1 DMEM medium supplemented with 10% FBS, and 1% penicillin/streptomycin.
BV-2 cells are plated at 35,000 cells/well in a volume of 100 μl for at least 4 hours before compounds are added. […] Compounds were added to cells overnight. […] Supernatant is removed and saved for further cytokine detection. The original plates with seeded cells were tested for cytotoxicity by measure of adenosine triphosphate (ATP) release by adding CellTiter-Glo® diluted 1:4 in distilled water (G7573, Promega) and transferring lysed cells to a completely black 96-well plate to be read with the Cytation3. Supernatant was then diluted 1:2 with a diluent from V-PLEX cytokine Kit and directly tested for the secreted cytokines TNFα, IL-6 and KC-GRO using electrochemiluminescence (Meso Scale Discovery). The standard curve for each cytokine was used to convert the electrochemiluminescent signal into pg of protein per mL.

[2] = system: α-smooth muscle actin (aSMA) positive LL29 cells; test: Inhibition of the fibrotic process: αSMA staining in TGF-β1 treated LL29 fibroblasts from IPF patients; conditions: Homo sapiens, Fibroblast; for EC50: 96 h; for inhibition at 10 µM: read-out: percentage in parentheses after EC50 >10
[3] = system: SW480 colon carcinoma cells; test: Cell viability assay (CellTiter-Glo); conditions: Homo sapiens; for EC50: SW480, 96 h; for inhibition at 10 µM: SW480, read-out: percent inhibition at 10 μM
Protocol: Representative compounds were screened using the assay procedure to assess the effect on cell viability as described below.
SW480 colon carcinoma cells were transduced with a lentiviral vector expressing luciferase with a human Sp5 promoter consisting of a sequence of eight TCF/LEF binding sites. […] These stably transduced SW480 cells were expanded in cell culture and used for all further screening activities. Each compound was dissolved in DMSO as a 10 mM stock and used to prepare compound source plates.
For the Cell Viability Assays, the cells were plated at 2,000 cells/well in 384-well plates with a DMEM medium containing 1% fetal bovine serum, and 1% Penicillin-Streptomycin and incubated for four days hours at 37° C. and 5% CO2. Eight replicates of DMSO-treated cells served as controls and cells treated with compound were performed in duplicate.
After incubation, 10 μL of CellTiter-Glo (Promega) was added to each well allowed to incubate for approximately 12 minutes. This reagent “results in cell lysis and generation of a luminescent signal proportional to the amount of ATP present. The amount of ATP is directly proportional to the number of cells present in culture, in agreement with previous reports. The CellTiter-Glo Assay generates a “glow-type” luminescent signal, produced by the luciferase reaction (Promega.com)”.
Dose-response curves were generated and EC50 concentration values were calculated using non-linear regression curve fit in the GraphPad Prism (San Diego, Calif.) or Dotmatics' Studies Software (Bishops Stortford, UK).

IL-6 = IL-6 inhibition in LPS-stimulated human peripheral blood mononuclear cells (HTRF); conditions: Homo sapiens, PBMC; for EC50: 22 h; for inhibition at 10 µM: read-out: percentage in parentheses after EC50 >10
[4] = system: Tau phosphorylation at Ser396 (pSer396); test: Tau phosphorylation at Ser396 (pSer396) in SH-SY5Y cells, ELISA / western blot; assay type: cell-based, human; conditions: Homo sapiens; SH-SY5Y cells, overnight (16-18 h); read-out: pSer396 Tau EC50;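 also: decrease in pSer396 Tau measured in lysates of treated cells by colorimetric ELISA or chemiluminescent western blot, same pSer396 antibody for both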
Protocol: Two days before treatment, cells were seeded onto 96 well plates at 5×10^4 cells/well.
The above synthesized compounds were screened using the cell assay procedure to assess decrease Tau phosphorylation at Ser396 (pSer396) described below.
Cells were lysed with RIPA buffer complemented with phosphatase and protease inhibitors then lysates were spun down at 12,000 g for 10 min to remove any cellular debris.

GSK3β kinase = GSK3β kinase (Homo sapiens, UniProt P49841); test: GSK3β kinase activity (Ser/Thr 09 peptide Z-lyte FRET assay); assay type: biochemical; conditions: recombinant kinase, 46 μM ATP, one hour at room temperature; read-out: EC50
Protocol: Each compound is dissolved in DMSO as a 10 mM stock and used to prepare compound source plates. Serial dilution (1:3, 11-point dose-response curves from 10 μM to 0.0003 μM) and compound transfer was performed using the ECHO 550 (Labcyte, Sunnyvale, Calif.) into 1536-well black-walled round bottom plates (Corning).
This is a non-radioactive assay using fluorescence resonance energy transfer (FRET) between coumarin and fluorescein to detect kinase activity which is represented as ratio of coumarin emission/fluorescein emission.
The mixture is allowed to incubate with the representative compounds for one hour at room temperature. All reactions were performed in duplicate. Unphosphorylated (“0% Control”) and phosphorylated (“100% control”) forms of Ser/Thr 18 serve as control reactions.
After incubation, diluted Development Buffer is added to the reaction and allowed to further incubate for one hour at room temperature.
Dose-response curves are generated and inhibitory concentration (IC50) values are calculated using non-linear regression curve fit in the Dotmatics' Studies Software (Bishops Stortford, UK).

[5] = system: Wnt-responsive Sp5-Luc reporter in SW480 colon carcinoma cells; test: Screening assay for Wnt activity (Sp5-Luc reporter gene assay); conditions: Homo sapiens; for EC50: SW480; for inhibition at 10 µM: SW480, read-out: percent inhibition at 10 μM
DYRK1A kinase = DYRK1A kinase (Homo sapiens, UniProt Q13627); test: DYRK1A kinase activity (Ser/Thr 18 peptide Z-lyte FRET assay); assay type: biochemical; conditions: recombinant DYRK1A, 30 μM ATP, one hour at room temperature;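 also: kinase activity read as coumarin/fluorescein emission ratio after development step, with unphosphorylated and phosphorylated peptide forms setting 0% and 100% controls, values from dose-response curves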

Sequence of GSK3β kinase (P49841 whole entry): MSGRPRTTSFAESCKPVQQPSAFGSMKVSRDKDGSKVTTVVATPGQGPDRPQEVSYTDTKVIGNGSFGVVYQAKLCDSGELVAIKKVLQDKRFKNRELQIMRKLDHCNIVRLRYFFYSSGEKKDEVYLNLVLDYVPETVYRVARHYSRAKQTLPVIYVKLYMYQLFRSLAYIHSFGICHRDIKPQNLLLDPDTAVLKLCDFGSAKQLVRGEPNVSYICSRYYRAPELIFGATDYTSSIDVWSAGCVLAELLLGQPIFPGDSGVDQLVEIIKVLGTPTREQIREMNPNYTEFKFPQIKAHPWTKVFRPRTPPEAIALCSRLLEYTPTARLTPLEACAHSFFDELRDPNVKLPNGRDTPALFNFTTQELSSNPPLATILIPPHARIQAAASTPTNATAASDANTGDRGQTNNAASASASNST

Structure (SMILES)	EC50 [1] [nM]	EC50 [3] [nM]	EC50 (IL-6) [nM]	EC50 [4] [nM]	EC50 (GSK3β kinase) [nM]	EC50 [5] [nM]	EC50 (DYRK1A kinase) [nM]	EC50 [2] [nM]	inhibition at 10 µM [3] [%]	inhibition at 10 µM (IL-6) [%]	inhibition at 10 µM [5] [%]	inhibition at 10 µM [2] [%]
O=C(Nc1cc2nc(-c3cccnc3)ccc2cn1)C1CC1 [Compound 764, N-(2-(Pyridin-3-yl)-1,6-naphthyridin-7-yl)cyclopropanecarboxamide]	5100	> 10000	> 10000	807	243	> 10000	8	> 10000	24.7	4.3	27.5	5.8
Cn1cc(-c2ccc3cnc(NC(=O)C4CCNCC4)nc3c2)cn1 [Compound 918, N-(7-(1-methyl-1H-pyrazol-4-yl)quinazolin-2-yl)piperidine-4-carboxamide]	> 10000	> 10000	> 10000	> 10000	236	> 10000	62	> 10000	10.2	14.6	5	31.2
Cn1cc(-c2ccc3cnc(NC(=O)CN4CCOCC4)nc3c2)cn1 [Compound 985, N-(7-(1-Methyl-1H-pyrazol-4-yl)quinazolin-2-yl)-2-morpholinoacetamide]	> 10000	> 10000	> 10000	5400	35	> 10000	126	> 10000	9.6	3.2	5.5	51.7
Cn1ncc(-c2ccc3cnc(NC(=O)C4CC5(C4)CN(CCF)C5)nc3c2)c1CN1CCCCC1 [Compound 1186, 2-(2-Fluoroethyl)-N-(7-(1-methyl-5-(piperidin-1-ylmethyl)-1H-pyrazol-4-yl)quinazolin-2-yl)-2-azaspiro[3.3]heptane-6-carboxamide]	5600	> 10000	> 10000	5400	402	> 10000	42	> 10000	35.2	6.7	35.8	24.5
Cn1cc(-c2ccc3cnc(NC(=O)C4CCN(CC5(C(F)(F)F)CC5)CC4)nc3c2)nn1 [Compound 1253, N-(7-(1-Methyl-1H-1,2,3-triazol-4-yl)quinazolin-2-yl)-1-((1-(trifluoromethyl)cyclopropyl)methyl)piperidine-4-carboxamide]	> 10000	> 10000	> 10000	188	15	1180	13	> 10000	17.1	4.4	–	47.2
CNC(=O)c1ccc(C(=O)Nc2ncc3ccc(-c4cn(C)nn4)cc3n2)cn1 [Compound 1278, N^2-Methyl-N^5-(7-(1-methyl-1H-1,2,3-triazol-4-yl)quinazolin-2-yl)pyridine-2,5-dicarboxamide]	7200	8530	> 10000	5050	134	3700	7	> 10000	–	3	–	35.9
CN1CCC(N(C)c2cc(C(=O)Nc3ncc4ccc(-c5cn(C)nn5)cc4n3)ccn2)CC1 [Compound 1288, 2-(Methyl(1-methylpiperidin-4-yl)amino)-N-(7-(1-methyl-1H-1,2,3-triazol-4-yl)quinazolin-2-yl)isonicotinamide]	6100	1090	> 10000	10000	177	59	6	8010	–	9.8	–	–

Stronger by EC50 [1], values ahead:

EC50 [1] [nM]	EC50 [3] [nM]	EC50 (IL-6) [nM]	EC50 [4] [nM]	EC50 (GSK3β kinase) [nM]	EC50 [5] [nM]	EC50 (DYRK1A kinase) [nM]	Structure (SMILES)	EC50 [2] [nM]	inhibition at 10 µM [3] [%]	inhibition at 10 µM (IL-6) [%]	inhibition at 10 µM [5] [%]	inhibition at 10 µM [2] [%]
106	3600	1100	157	219	8810	3	O=C(Nc1cc2nc(-c3cncs3)ccc2cn1)[C@H]1CC[C@H](CN2CC(F)C2)CC1 [Compound 613, trans-4-((3-Fluoroazetidin-1-yl)methyl)-N-(2-(thiazol-5-yl)-1,6-naphthyridin-7-yl)cyclohexane-1-carboxamide]	650	–	–	–	–
542	> 10000	> 10000	7900	1150	8610	29	Cc1ncc(-c2ccc3cnc(NC(=O)N4CCOCC4)cc3n2)s1 [Compound 634, N-(2-(2-Methylthiazol-5-yl)-1,6-naphthyridin-7-yl)morpholine-4-carboxamide]	2130	41.2	13	–	–
504	> 10000	7340	877	401	> 10000	38	Cc1ncc(-c2ccc3cnc(NC(=O)C4CCN(C)CC4)cc3n2)s1 [Compound 640, 1-Methyl-N-(2-(2-methylthiazol-5-yl)-1,6-naphthyridin-7-yl)piperidine-4-carboxamide]	671	40.4	–	42.9	–
1900	> 10000	4860	372	25	> 10000	13	Cn1cc(-c2ccc3cnc(NC(=O)C4CC4)nc3c2)cn1 [Compound 909, N-(7-(1-Methyl-1H-pyrazol-4-yl)quinazolin-2-yl)cyclopropanecarboxamide]	1380	45.6	–	56.1	–
1070	> 10000	> 10000	1300	204	> 10000	44	CC(C)CN1CCC(C(=O)Nc2ncc3ccc(-c4cnn(C)c4)cc3n2)CC1 [Compound 923, 1-isobutyl-N-(7-(1-methyl-1H-pyrazol-4-yl)quinazolin-2-yl)piperidine-4-carboxamide]	2720	33.9	10.5	34.8	–
354	> 10000	> 10000	1620	45	> 10000	45	CN(CC(=O)Nc1ncc2ccc(-c3cnn(C)c3)cc2n1)C1CCC1 [Compound 963, 2-(Cyclobutyl(methyl)amino)-N-(7-(1-methyl-1H-pyrazol-4-yl)quinazolin-2-yl)acetamide]	1570	27.9	5.4	11.8	–
1300	> 10000	8310	> 10000	776	> 10000	15	Cn1cc(-c2ccc3cnc(NC(=O)CC4CNCCO4)nc3c2)cn1 (stereo not drawn) [Compound 994, N-(7-(1-Methyl-1H-pyrazol-4-yl)quinazolin-2-yl)-2-(morpholin-2-yl)acetamide]	> 10000	24.8	–	11.5	0
1490	> 10000	> 10000	4500	262	> 10000	25	Cn1cc(-c2ccc3cnc(NC(=O)C4CCN(Cc5ncco5)CC4)nc3c2)cn1 [Compound 1003, N-(7-(1-Methyl-1H-pyrazol-4-yl)quinazolin-2-yl)-1-(oxazol-2-ylmethyl) piperidine-4-carboxamide]	> 10000	18.5	6.6	19.3	4.8
1800	> 10000	> 10000	> 10000	349	> 10000	106	Cn1cc(-c2ccc3cnc(NC(=O)C4CCN(Cc5ncccn5)CC4)nc3c2)cn1 [Compound 1007, N-(7-(1-methyl-1H-pyrazol-4-yl)quinazolin-2-yl)-1-(pyrimidin-2-ylmethyl)piperidine-4-carboxamide]	> 10000	17.9	2.4	14.6	39.7
3100	4480	> 10000	9500	55	2280	20	Cn1cc(-c2ccc3cnc(NC(=O)CCc4ccccc4)nc3c2)cn1 [Compound 1101, N-(7-(1-Methyl-1H-pyrazol-4-yl)quinazolin-2-yl)-3-phenylpropanamide]	> 10000	–	10.6	–	12.7
